Laboratory results published in patent US11767564B2, “Use of SDHA as a prognostic marker and therapeutic target in uveal melanoma” (Board of Regents, The University of Texas System, priority 2017, dated 2023).

What was measured:
[1] = test system: monosomy 3 uveal melanoma cell lines; assay: Cell survival analysis with OXPHOS inhibitor IACS-10759; type: cell-based
Procedure: Cell survival analysis with monosomy and disomy 3 uveal melanoma cells in presence and absence of oxidative phosphorylation (OXPHOS) inhibitor, IACS-10759, was performed. Cells were cultured under ambient oxygen or 1% oxygen. Mitotracker Red dye staining was used to assay the extent of active mitochondria in monosomy 3 and disomy 3 cells. The percent cell survival of uveal melanoma cells treated with increasing concentrations of OXPHOS inhibitor, IACS-10759, was determined.

[2] = test system: monosomy 3 and disomy 3 cells; assay: Percent cell survival with SDHA and/or MIF inhibitors; type: cell-based; conditions: simultaneous 20 nM SDHA siRNA and 10 or 25 μM ISO-1; both cell lines (monosomy 3, disomy 3); FIG. 7B
Source text: FIGS. 7A-7B: (FIG. 7A) Survival rate of uveal melanoma predicted using TCGA data. SDHA and MIF expression both above median is associated with lowest survival rate. SDHA and MIF both below median is associated with highest survival rate. SDHA below median and MIF above median expression is associated with the second lowest survival rate (p<0.001). (FIG. 7B) In vitro validation of association of SDHA and MIF expression with uveal melanoma cell survival.
Accordingly, the survival rate of uveal melanoma was predicted using TCGA data of SDHA and/or MIF expression. SDHA and MIF expression both above median was associated with lowest survival rate (FIG. 7A). On the other hand, SDHA and MIF both below median was associated with highest survival rate. Thus, both SDHA and MIF expression correlate with survival rate of uveal melanoma patients and may be used for prognosis. The association of SDHA and MID with uveal melanoma survival rate was validated by measuring percent cell survival in monosomy 3 and disomy 3 cells treated with SHDA and/or MIF inhibitors. SDHA was inhibited by 20 nM siRNA and MIF was inhibited by 10 or 25 μM ISO-1.

SMILES | percent cell survival, resistance to inhibitor ([1]; monosomy 3 lines under hypoxic conditions (1% oxygen) or in galactose media) | percent cell survival, resistance to inhibitor ([1]; three monosomy 3 UM cell lines compared to three lines with normal chromosome 3 copy number, increasing concentrations) | percent cell survival [2]
Cc1nc(-c2nc(-c3ccc(OC(F)(F)F)cc3)no2)nn1Cc1cccc(N2CCC(S(C)(=O)=O)CC2)c1 [IACS-10759] | resistance diminishes | more resistant to IACS-10759 | –
COC(=O)CC1CC(c2ccc(O)cc2)=NO1 (stereo not drawn) [ISO-1] | – | – | highest decrease in percent cell survival
